# Where a name gives a salt, the structure may show the parent alone. Non-standard residues stand in square brackets, D forms with d. Residues, ends and D or L forms follow the SMILES beside them. *: point of attachment. pNA = O=[N+]([O-])c1ccc(N*)cc1; AMC = Cc1cc(=O)oc2cc(N*)ccc12
# How the values were obtained:
# [1] = target: T1, kininogenase extracted and purified from human urine (original solution) (Homo sapiens, UniProt P06870); assay: Enzymatic dynamic constants with lower molecule synthetic substrates; type: biochemical; conditions: synthetic substrate
# T1 construct: from tissue; host or cells: human urine (pooled, healthy males)
# T1 sequence (P06870 25-262): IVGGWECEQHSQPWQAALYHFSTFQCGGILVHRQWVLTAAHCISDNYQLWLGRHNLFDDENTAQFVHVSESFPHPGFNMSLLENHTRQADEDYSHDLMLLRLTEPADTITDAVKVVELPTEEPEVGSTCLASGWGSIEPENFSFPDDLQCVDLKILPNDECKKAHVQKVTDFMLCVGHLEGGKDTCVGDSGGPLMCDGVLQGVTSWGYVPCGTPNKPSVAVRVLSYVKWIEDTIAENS
# Source text: In the next place, An ability of the kininogenase for making free the kinin was periodically checked by using canine lower molecule kininogen, human lower molecule kininogen and human higher molecule kininogen in various concentration, as substrates to calculate enzymatic dynamic constants of the kininogenase.
# An activity of the kininogenase to decomposition of lower molecule synthetic substrates was checked as in said Item (A) to calculate enzymatic dynamic constants of the kininogenase.
# [2] = system: middle cerebral artery obstructive model animal; assay: Nerve dysfunction, cerebral circulation and brain wave in middle cerebral artery obstruction model; type: in vivo, Japanese monkey; conditions: citicholine 10mg/kg intravenous infusion, 24 hours after obstruction
# Protocol: A tube was fitted to left-outernal carotid artery of anesthetized Japanese monkey and a silicone resin pellet [1 mm (q) ) x 5mm] was inserted into the artery through the tube to prepare a middle cerebral artery obstructive model animal.
# After lapsed 5 minutes from the obstruction of left middle cerebral artery, kininogenase (2.5 x 10-^2 PNA units/kg) or citicholine (10mg/kg) as a test and control drugs was administrated through an intravenous infusion.
# [3] = system: model animal with hypoxia; assay: Influence to model animal with hypoxia (5% O2 breathing); type: in vivo, New Zealand white rabbits
# Protocol: Each of female New Zealand white rabbits (body weight of about 3kg) were anethetized with pentbarbital-Na, and a tube was inserted, at once, into their trachea to cause an adjusted breathing with air through a respirator.
# After intravenously injecting 0.5mg/kg of tubocurarine chloride to cause an amyotonia, the animal was transferred to a fixing device to cause an orientation of her brain to peel bellies along a median line in its vertex and to form two apertures or windows of 0.5 x 0.5cm at right front portion and 1.0 x 0.5cm at right rear portion of the skull. To the front window, a silver ball electrode was set to measure brain-wave in the cortex, and a local blood flow in the cortex and P02 in brain were measured by utilizing the rear window. Number of heat beats was measured by making trigger R-wave of the […]. These parameters were recorded by feeding the same to a polygraph, crossed thermocouple and recticorder.
# After stabilized of each parameters, the air from the respirator was changed to 5% 02 and at once, drugs given later was intravenously injected to continue the experiment for 10 minutes.
# • (A) Control group (n = 3) : • Administrated 3.3ml of phosphate buffer (0.05M, pH 7) for 30 minutes at rate of 0.11 ml/min. • (B) 5.0 x 10-^3 PNA units/kg Administration group (n = 3) : • Administrated 3.3ml of solution for 30 minutes at rate of 0.11 ml/min., which solution was prepared by diluting a kininogenase solution of 5.0 x 10-^2 PNA units/ml with phosphate buffer (0.05M, pH 7) by 10 folds. • (C) 2.5 x 10-^3 PNA units/kg Administration group (n = 3) : • Administrated 3.3ml of solution for 30 minutes at rate of 0.11 ml/min., which solution was prepared by diluting a kininogenase solution of 2.5 x 10-^2 PNA units/ml with phosphate buffer (0.05M, pH 7) by 10 folds. • (D) 1.5 x 10-^3 PNA units/kg Administration group (n = 3) : • Administrated 3.3ml of solution for 30 minutes at rate of 0.11 ml/min., which solution was prepared by diluting a kininogenase solution of 1.5 x 10-^2 PNA units/ml with phosphate buffer (0.05M, pH 7) by 10 folds. • (E) Citicholine (100mg/kg) administration group (n = 3) : • Administrated 3.3ml of a solution for 30 minutes at rate of 0.11 ml/min., which solution was prepared by taking 4ml of Nicholine injection solution (250mg/2ml), and diluting the same with phosphate buffer (0.05M, pH 7) to make the drug concentration to 100mg/kg. • (F) Citicholine (10mg/kg) administration group (n = 3) : • Administrated 3.3ml of a solution for 30 minutes at rate of 0.11 ml/min., which solution was prepared by taking 2ml of Nicholine injection solution (100mg/2ml), and diluting the same with phosphate buffer (0.05M, pH 7) to make the drug concentration to 10mg/kg. • (G) Nicardipine (4a g/kg) administration group (n = 3) : • Taking 10mg of Nicardipine, and diluting the same with saline to make the drug concentration to 4µ g/kg to administrate 0.1 ml/kg for 20 seconds.
# A ratio of change was calculated on the number of heart beats, and an amount of change was calculated on the P02 in brain and local blood flow in brain. The brain-wave was analyzed with an analyzer (Type ATAC-450 marketed by Japan Photoelectric Co., Ltd.) to print out results. A statistic inspection or examination was carried out with use of a program of FM 11 marketed by Fujitu Co., Ltd. and judged as there is a significant difference, when P value is 0.05 or less in Student's t-test.
# [4] = system: model animal with cerebral infarction; assay: Cerebral circulation and metabolism in cerebral infarction model (micro-glass bead injection); type: in vivo, rabbit
# Protocol: A micro-glass bead was injected into right hemicerebrum of an anethetized healthy rabbit to prepare a model animal with cerebral infarction. After administration of a drug, local blood flow (in cortex portion), micro-circulation in cerebral pia leptmeninges, distribution of cerebral blood flow and concentrations of P02, ATP, lactate, pyruvate, glucose and glucose-6-phosphate were measured. The measurement of biochemical substances was carried out after lapsed 60 minutes from the administration of the drug.
# A change in diameter arterioles in cerebral pia leptmeninges was observed, as to blood vessels having diameters of >100, >50 to <100 and <50u m, under microscope and according to Cranial window method.
# [5] = system: region occurred a cerebral infarction; assay: Influence to region of cerebral infarction 24 hours after glass bead injection; type: in vivo, rabbit; conditions: 100mg/kg, sustaining administration for 30 minutes
# Protocol: With use of model animals as in Pharmacological Test Example 4, an influence of a drug to region occurred a cerebral infarction at the time after lapsed 24 hours from the injection of glass bead was checked.
# [6] = system: model animal destroyed in its internal capsule; type: in vivo, New Zealand white rabbit; conditions: citicholine 100mg/kg i.v. for 30 minutes
# Source text: An influence of kininogenase to an improvement in an arousal reaction of brain wave in cerebral cortex was checked by selecting a rabbit as a test animal, electrically canterigating an internal capsule to prepare a model animal with symptoms similar to a person caused a cerebral hemorrhage, and administrating the drug, since the destruction of internal capsule gives a partial obstacle to an invigoration system in ascending rectacular region, which has been said as having a close relation with the arousal reaction of brain-wave in cortex.
# A cannula was fitted in an auricle vein of a female New Zealand white rabbit to anethetize the animal by intravenously administrating pentbarbital-Na (30mg/kg). […] A concentration of PC02 in the artery blood was periodically measured by a blood gas analyzer to adjust the respirator, so that the concentration lies in a suitable level of 35 ± 5mmHg). […]
# The brain-wave was monopolarly derived by the screw type electrode to record on a polygraph and also recorded on a magnetic tape by a data recorder. A cardiogram, blood pressure and number of heart beats were recorded on the polygraph through a secondary induction, a pressure transducer and a momentary heart beat recorder which subjects to cause a trigger the R wave for the cardiogram, respectively. […]
# A voltage firstly appeared an arousal reaction, when a voltage for stimulating the rectacular regions shall be raised up with an interval of 5V, and a period of time during which the arousal reaction continues, when the rectacular regions are stimulated with voltage of 4V were defined as the "arousal reaction threshold value" and "arousal reaction sustaining time". The threshold value and sustaining time were visually judged from waves recorded on the charts and shown with units of voltage value (V) and time (sec.). […]
# [7] = system: brain in ischemic state; assay: Cerebral ischemia by ligation of vertebral and common carotid arteries, then release; type: in vivo, rabbit
# Protocol: Both of side vertebral arteries of a healthy rabbit were permanently ligated, both of the common carotid arteries were ligated for 40 minutes to make the brain in ischemic state, and then released the ligation of the common carotid arteries to observe a local blood flow and brain-wave in cerebral cortex portion and to measure concentrations of ATP and lactate in the cortex portion, at the time lapsed 15 minutes from the release of blood flow in the common carotid arteries. Following drugs were administrated in following manner. Citicholine : • Intravenously administrated for 30 minutes from 15 minutes before the ligation of common carotid arteries and at a dose of 100mg/kg. Nicardipine : • Rapidly administrated into an upper portion of small intestine at the time of 15 minutes before the ligation of common carotid arteries.
# [8] = 5% O2, citicholine 100mg/kg or 10mg/kg i.v., Nicardipine 4µ g/kg
smiles,measurement,setting,value
"CCOC(=O)[C@H](CCCNC(=N)N)NC(=O)c1ccccc1 [BAEE, Benzoyl-L-Arg ethyl ether hydrochloride]",Km,[1],252 µM
same,Vmax,[1],4.23e-05 min⁻¹ mg⁻¹
C[N+](C)(C)CCOP(=O)(O)OP(=O)([O-])OC[C@H]1O[C@@H](n2ccc(N)nc2=O)[C@H](O)[C@@H]1O [Citicholine],blood flow in cerebral cortex,[2],no improvement
same,brain wave activities,[2],no improvement
same,neuro symptoms,[2]; versus control group,improvement
same,Influence to P02 in cerebral cortex (suppression of decrease),[3]; [8],no suppressing effect
same,Influence to local blood flow in cerebral cortex (suppression of increase),[3]; [8],no effect
same,Influence to brain-wave in cortex portion,"[3]; 5% O2, citicholine at dose of 100mg/kg",low-amplitude and quick wave
same,Influence to number of heart beats,"[3]; versus control group, citicholine 100mg/kg or 10mg/kg i.v. for 30 minutes, Nicardipine 4µ g/kg for 20 seconds",no significant difference
same,suppression of ATP decrease,[4]; 60 minutes after administration of the drug,did not show the suppress of ATP decrease
same,Blood flow in cerebral cortex portion at the ischemic side,"[4]; Nicardipine 0.5mg/kg rapid into upper small intestine, citicholine 10mg/kg sustaining intravenous",no increase
same,Region of infarction (%),[5]; 24 hours after glass bead injection,30.8 ± 19.8%
same,Inhibition (%),[5]; versus control,-35.9%
same,frequency components of brain wave in cortex portion (quick wave components),[6]; reported as a tendency,reduction of quick wave components is suppressed
same,Sustaining period of time in the arousal reaction,[6]; versus control group,not recognized
same,Threshold value of arousal reaction,[6]; versus control group,No apparent change
same,local blood flow in cerebral cortex portion after release of blood flow,"[7]; citicholine 100mg/kg i.v. for 30 minutes, Nicardipine rapidly into upper small intestine, 15 minutes before ligation",did not suppresses the blood flow increase
same,reactivation of flattened brain-wave,"[7]; citicholine 100mg/kg i.v., Nicardipine into upper small intestine",not recognized
"Cc1cc(=O)oc2cc(NC(=O)[C@H](CCCNC(=N)N)NC(=O)[C@H](Cc3ccccc3)NC(=O)[C@@H]3CCCN3)ccc12 [MCA, L-Pro-L-Phe-L-Arg-4-methyl-cumaryl-7-amide] (H-Pro-Phe-Arg-{AMC})",Km,[1],34 µM
same,Vmax,[1],2.57e-05 min⁻¹ mg⁻¹
COC(=O)C1=C(C)NC(C)=C(C(=O)OCCN(C)Cc2ccccc2)C1c1cccc([N+](=O)[O-])c1 (centres unmarked) [Nicardipine],Influence to local blood flow in cerebral cortex (suppression of increase),[3]; [8],no effect
"CC(C)C[C@H](NC(=O)[C@H](N)C(C)C)C(=O)N[C@@H](CCCNC(=N)N)C(=O)Nc1ccc([N+](=O)[O-])cc1 [PNA, H-D-Val-L-Leu-L-Arg-p-nitroanilide dihydrochloride] (H-[dV]-Leu-Arg-pNA)",Km,[1],8.95 µM
same,Vmax,[1],7.8e-06 min⁻¹ mg⁻¹
